According to patent US12227488B2, “Small molecule degraders of Helios and methods of use” (DANA-FARBER CANCER INSTITUTE, INC., priority 2018, dated 2025):

What was measured:
[1] = biological target: T1, SALL4 ZNF1-2 (Homo sapiens, UniProt Q96SW2+Q9UJQ4); assay: Cellular degradation assay, eGFP-SALL4 ZnF1-2 fusion with mCherry reporter in Flp-In 293 cells; format: cell-based; settings: 5 h incubation, n=1
T1 construct: IKZF1Δ, IKZF2Δ, GSPT1 and SALL4 ZnF1-2 were subcloned; expressed in transfected cells; host or cells: Flp-In 293
Summary of the method: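 Flp-In 293 cells stably expressing eGFP-SALL4 ZnF1-2 fusion plus mCherry reporter were treated with compound titrations (0.5% DMSO) for 5 hours. Imaging at 488/561 nm gave, per well, the fraction of GFP-positive among mCherry-positive cells.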

[2] = biological target: T2, IKZF1 (Homo sapiens, UniProt Q13422); assay: Cellular degradation assay, eGFP-IKZF1Δ fusion with mCherry reporter in Flp-In 293 cells; format: cell-based; settings: 5 h incubation, n=1
T2 construct: expressed in transfected cells; host or cells: Flp-In 293
Summary of the method: (§1)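 Flp-In 293 cells stably expressing eGFP-tagged degron fusions with P2A-mCherry reporter were treated with compound titrations (0.5% DMSO) for 5 hours. Imaging quantified GFP-positive/mCherry-positive cell fraction per well; DC50 at 5 h from nonlinear variable-slope fit.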

[3] = tested on: IKZF2; assay: Cellular degradation assay, eGFP-IKZF2Δ fusion with mCherry reporter in Flp-In 293 cells; format: cell-based; settings: 5 h incubation, n=1
Summary of the method: as §1

[4] = biological target: T3, CRBN and Helios (IKZF2) (Homo sapiens, UniProt Q96SW2+Q9UKS7); assay: TR-FRET dimerization assay (CRBN-IKZF2 ternary complex formation); format: binding; settings: n=1
T3 construct: His (N); Strep (N)
Summary of the method: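 BODIPY-labeled DDB1ΔB-CRBN and in vitro biotinylated IKZF2 were treated with increasing compound concentrations plus tracer Terbium-Streptavidin and incubated 15 min at rt. Recruitment was quantified as the 520/490 nm TR-FRET ratio; values are single measurements (n=1), each averaged from at least three technical replicates.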

[5] = biological target: GSPT1 (Homo sapiens, UniProt P15170+Q96SW2); assay: Cellular degradation assay, eGFP-GSPT1 fusion with mCherry reporter in Flp-In 293 cells; format: cell-based; parameters: expressed in transfected cells; host or cells: Flp-In 293; settings: 5 h incubation, n=1
Summary of the method: as §1

[6] = compound concentration 2.00E−05
[7] = compound concentration 2.00E−06
[8] = compound concentration 2.00E−07
[9] = compound concentration 6.6667E−05
[10] = compound concentration 6.6667E−06
[11] = compound concentration 6.6667E−07 (667 nM)

GSPT1, sequence (P15170 whole entry, the tested form may be a part): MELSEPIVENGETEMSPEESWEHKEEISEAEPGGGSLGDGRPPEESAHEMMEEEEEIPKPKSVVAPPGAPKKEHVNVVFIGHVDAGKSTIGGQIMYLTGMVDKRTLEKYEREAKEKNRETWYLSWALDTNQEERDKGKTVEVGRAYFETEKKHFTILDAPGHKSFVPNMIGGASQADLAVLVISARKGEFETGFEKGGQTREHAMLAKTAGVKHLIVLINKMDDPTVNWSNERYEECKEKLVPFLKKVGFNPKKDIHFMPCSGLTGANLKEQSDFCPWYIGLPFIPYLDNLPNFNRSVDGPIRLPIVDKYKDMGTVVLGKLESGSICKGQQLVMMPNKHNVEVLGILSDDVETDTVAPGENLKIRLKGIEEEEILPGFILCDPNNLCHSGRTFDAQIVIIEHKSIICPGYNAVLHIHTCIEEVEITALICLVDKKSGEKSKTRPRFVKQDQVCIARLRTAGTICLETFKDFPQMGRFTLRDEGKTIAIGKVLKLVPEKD
GSPT1, sequence (Q96SW2 whole entry, the tested form may be a part): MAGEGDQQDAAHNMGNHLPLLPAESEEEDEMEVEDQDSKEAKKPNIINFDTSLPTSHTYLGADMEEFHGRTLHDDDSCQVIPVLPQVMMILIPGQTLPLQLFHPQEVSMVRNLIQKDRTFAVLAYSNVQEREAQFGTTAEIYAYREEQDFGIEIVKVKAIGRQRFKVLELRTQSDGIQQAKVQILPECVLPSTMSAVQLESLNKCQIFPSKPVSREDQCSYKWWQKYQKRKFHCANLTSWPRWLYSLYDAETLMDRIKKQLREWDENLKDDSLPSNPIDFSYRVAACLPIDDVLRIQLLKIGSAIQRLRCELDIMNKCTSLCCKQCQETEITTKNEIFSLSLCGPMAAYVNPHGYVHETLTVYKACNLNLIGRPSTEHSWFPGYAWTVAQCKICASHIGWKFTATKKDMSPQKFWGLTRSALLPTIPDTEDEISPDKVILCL
GSPT1, sequence (Q16531 whole entry partner, the tested form may be a part): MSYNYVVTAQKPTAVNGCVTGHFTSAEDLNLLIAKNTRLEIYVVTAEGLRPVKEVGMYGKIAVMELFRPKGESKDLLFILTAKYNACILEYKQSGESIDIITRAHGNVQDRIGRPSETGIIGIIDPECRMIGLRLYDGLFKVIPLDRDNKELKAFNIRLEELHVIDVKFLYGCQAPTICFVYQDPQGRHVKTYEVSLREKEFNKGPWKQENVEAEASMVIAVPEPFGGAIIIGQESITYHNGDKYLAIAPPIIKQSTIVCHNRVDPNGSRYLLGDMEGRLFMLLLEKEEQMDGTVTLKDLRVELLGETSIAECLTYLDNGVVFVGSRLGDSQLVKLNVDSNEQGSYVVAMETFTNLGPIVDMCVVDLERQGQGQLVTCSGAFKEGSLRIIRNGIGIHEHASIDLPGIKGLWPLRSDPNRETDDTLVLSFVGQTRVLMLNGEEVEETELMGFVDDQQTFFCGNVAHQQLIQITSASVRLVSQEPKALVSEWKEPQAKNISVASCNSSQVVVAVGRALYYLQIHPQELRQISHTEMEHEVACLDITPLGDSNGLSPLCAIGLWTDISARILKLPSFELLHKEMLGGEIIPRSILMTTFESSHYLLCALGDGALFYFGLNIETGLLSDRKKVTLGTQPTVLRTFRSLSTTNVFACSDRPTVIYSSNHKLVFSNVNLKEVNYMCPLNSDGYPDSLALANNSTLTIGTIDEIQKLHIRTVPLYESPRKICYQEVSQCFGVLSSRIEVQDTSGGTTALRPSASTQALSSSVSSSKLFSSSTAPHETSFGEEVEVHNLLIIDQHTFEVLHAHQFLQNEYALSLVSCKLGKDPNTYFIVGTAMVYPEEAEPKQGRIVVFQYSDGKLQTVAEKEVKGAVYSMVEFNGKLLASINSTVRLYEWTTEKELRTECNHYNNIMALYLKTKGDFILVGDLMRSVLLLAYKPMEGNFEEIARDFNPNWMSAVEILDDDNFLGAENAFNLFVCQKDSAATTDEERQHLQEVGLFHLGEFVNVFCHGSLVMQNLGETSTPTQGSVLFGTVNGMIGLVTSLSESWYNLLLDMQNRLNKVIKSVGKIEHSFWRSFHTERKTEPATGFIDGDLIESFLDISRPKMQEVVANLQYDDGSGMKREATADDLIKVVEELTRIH
T1 sequence (Q9UJQ4 378-438 limits assumed): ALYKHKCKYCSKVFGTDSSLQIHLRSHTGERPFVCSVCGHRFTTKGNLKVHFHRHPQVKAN
T1 sequence (Q96SW2 whole entry, the tested form may be a part): as the sequence (Q96SW2 whole entry, the tested form may be a part) above
T1 sequence (Q16531 whole entry partner, the tested form may be a part): as the sequence (Q16531 whole entry partner, the tested form may be a part) above
T3 sequence (Q96SW2 whole entry): as the sequence (Q96SW2 whole entry, the tested form may be a part) above
T3 sequence (Q9UKS7 whole entry): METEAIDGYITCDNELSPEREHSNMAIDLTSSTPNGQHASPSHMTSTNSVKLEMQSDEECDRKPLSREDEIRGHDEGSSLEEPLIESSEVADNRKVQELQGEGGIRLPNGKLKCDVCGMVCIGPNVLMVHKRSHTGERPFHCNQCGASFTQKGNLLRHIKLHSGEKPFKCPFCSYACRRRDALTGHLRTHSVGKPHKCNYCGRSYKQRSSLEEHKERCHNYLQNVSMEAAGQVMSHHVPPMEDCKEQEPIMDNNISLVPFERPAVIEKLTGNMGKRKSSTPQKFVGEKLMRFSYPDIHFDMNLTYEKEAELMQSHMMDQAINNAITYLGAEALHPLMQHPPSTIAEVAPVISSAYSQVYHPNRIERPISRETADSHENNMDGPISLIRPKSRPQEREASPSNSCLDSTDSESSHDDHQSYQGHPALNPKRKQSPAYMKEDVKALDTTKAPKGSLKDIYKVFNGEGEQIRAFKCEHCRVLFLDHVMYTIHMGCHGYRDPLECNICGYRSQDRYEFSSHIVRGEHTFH
T2 sequence (Q13422 83-213 isoform Q13422-7 limits assumed): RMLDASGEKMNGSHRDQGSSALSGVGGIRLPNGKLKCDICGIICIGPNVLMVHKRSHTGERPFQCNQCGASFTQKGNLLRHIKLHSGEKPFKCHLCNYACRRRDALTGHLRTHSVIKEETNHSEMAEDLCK
T2 sequence (Q96SW2 whole entry partner, the tested form may be a part): as the sequence (Q96SW2 whole entry, the tested form may be a part) above
T2 sequence (Q16531 2-1140 partner limits assumed): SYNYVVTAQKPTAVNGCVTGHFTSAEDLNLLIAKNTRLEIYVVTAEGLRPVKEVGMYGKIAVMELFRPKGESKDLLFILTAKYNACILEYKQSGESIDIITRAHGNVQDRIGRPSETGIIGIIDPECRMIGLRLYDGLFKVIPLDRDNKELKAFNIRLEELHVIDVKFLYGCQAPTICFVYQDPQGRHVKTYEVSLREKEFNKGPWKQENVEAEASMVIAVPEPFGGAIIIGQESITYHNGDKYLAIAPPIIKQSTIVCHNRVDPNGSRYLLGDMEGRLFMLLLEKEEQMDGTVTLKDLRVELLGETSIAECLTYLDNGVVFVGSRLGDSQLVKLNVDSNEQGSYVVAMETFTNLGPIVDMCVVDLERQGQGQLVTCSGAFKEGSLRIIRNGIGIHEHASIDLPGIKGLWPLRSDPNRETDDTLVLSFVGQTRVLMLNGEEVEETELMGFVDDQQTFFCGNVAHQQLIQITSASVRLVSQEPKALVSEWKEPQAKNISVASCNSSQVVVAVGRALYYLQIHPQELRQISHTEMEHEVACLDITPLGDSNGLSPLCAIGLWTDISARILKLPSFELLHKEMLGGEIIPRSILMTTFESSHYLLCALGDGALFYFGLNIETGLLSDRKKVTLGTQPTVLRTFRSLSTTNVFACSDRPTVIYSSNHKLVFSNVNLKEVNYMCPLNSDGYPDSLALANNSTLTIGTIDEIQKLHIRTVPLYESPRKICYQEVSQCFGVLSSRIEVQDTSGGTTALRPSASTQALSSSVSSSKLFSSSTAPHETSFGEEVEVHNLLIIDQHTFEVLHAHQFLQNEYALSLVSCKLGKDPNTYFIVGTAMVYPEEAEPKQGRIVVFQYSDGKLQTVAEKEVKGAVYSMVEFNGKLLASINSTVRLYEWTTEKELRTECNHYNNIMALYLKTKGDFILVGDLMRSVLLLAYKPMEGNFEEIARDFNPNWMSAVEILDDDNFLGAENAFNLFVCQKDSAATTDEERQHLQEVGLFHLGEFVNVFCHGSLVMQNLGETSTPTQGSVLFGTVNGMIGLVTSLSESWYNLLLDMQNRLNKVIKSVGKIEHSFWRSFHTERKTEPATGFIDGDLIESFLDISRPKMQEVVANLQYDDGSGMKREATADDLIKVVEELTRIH

Structure (SMILES) | SALL4 ZNF1-2 GFP/RFP Relative Abundance [1, 6] | SALL4 ZNF1-2 GFP/RFP Relative Abundance [1, 7] | SALL4 ZNF1-2 GFP/RFP Relative Abundance [1, 8] | IKZF1 GFP/RFP Relative Abundance [2, 6] | IKZF1 GFP/RFP Relative Abundance [2, 7] | IKZF1 GFP/RFP Relative Abundance [2, 8] | IKZF2 GFP/RFP Relative Abundance [3, 6] | IKZF2 GFP/RFP Relative Abundance [3, 7] | IKZF2 GFP/RFP Relative Abundance [3, 8] | TR-FRET-IKZF2 (Normalized to CC-885) [4, 9] | TR-FRET-IKZF2 (Normalized to CC-885) [4, 10] | TR-FRET-IKZF2 (Normalized to CC-885) [4, 11] | GSPT1 GFP/RFP Relative Abundance [5, 6] | GSPT1 GFP/RFP Relative Abundance [5, 7] | GSPT1 GFP/RFP Relative Abundance [5, 8]
COC(=O)c1n[nH]c(NC2=CC(=O)N(C3CCC(=O)NC3=O)C2=O)n1 (stereo not drawn) [Compound 20, Methyl 5-((1-(2,6-dioxopiperidin-3-yl)-2,5-dioxo-2,5-dihydro-1H-pyrrol-3-yl)amino)-1H-1,2,4-triazole-3-carboxylate] | 0.894 | 0.908 | 0.892 | 0.721 | 0.895 | 0.342 | 0.952 | 0.987 | 1.025 | 0.050 | 0.017 | 0.014 | 0.901 | 1.036 | 1.069
Cc1ccc(NC2=CC(=O)N(C3CCC(=O)NC3=O)C2=O)cc1Cl (stereo not drawn) [Compound 3, 3-(3-((3-chloro-4-methylphenyl)amino)-2,5-dioxo-2,5-dihydro-1H-pyrrol-1-yl)piperidine-2,6-dione] | 0.914 | 0.884 | 0.879 | 0.242 | 0.370 | 0.349 | 1.032 | 0.973 | 0.979 | 0.357 | 0.267 | 0.253 | 1.204 | 1.006 | 1.190
Cc1ccc(NC(=O)NCCNC2=CC(=O)N(C3CCC(=O)NC3=O)C2=O)cc1Cl (stereo not drawn) [Compound 41, 1-(3-chloro-4-methylphenyl)-3-(2-((1-(2,6-dioxopiperidin-3-yl)-2,5-dioxo-2,5-dihydro-1H-pyrrol-3-yl)amino)ethyl)urea] | 1.020 | 0.994 | 1.004 | 0.638 | 0.909 | 1.003 | 0.969 | 1.027 | 1.040 | 0.170 | 0.126 | 0.104 | 0.038 | 0.062 | 0.077
O=C1CCC(N2C(=O)C=C(Nc3ccc4cn[nH]c4c3)C2=O)C(=O)N1 (stereo not drawn) [Compound 32, 3-(3-((1H-indazol-6-yl)amino)-2,5-dioxo-2,5-dihydro-1H-pyrrol-1-yl)piperidine-2,6-dione] | 1.008 | 0.889 | 0.901 | 0.748 | 0.795 | 0.832 | 1.008 | 0.941 | 0.958 | 0.274 | 0.213 | 0.210 | 0.646 | 0.855 | 0.970
CN(C)C(=O)c1cccc(NC2=CC(=O)N(C3CCC(=O)NC3=O)C2=O)c1 (stereo not drawn) [Compound 33, 3-((1-(2,6-dioxopiperidin-3-yl)-2,5-dioxo-2,5-dihydro-1H-pyrrol-3-yl)amino)-N,N-dimethylbenzamide] | 0.783 | 0.813 | 0.860 | 0.339 | 0.413 | 0.445 | 0.372 | 0.521 | 0.570 | 0.584 | 0.491 | 0.452 | 0.944 | 0.952 | 0.956
O=C1CCC(N2C(=O)C=C(Nc3nccs3)C2=O)C(=O)N1 (stereo not drawn) [Compound 19, 3-(2,5-dioxo-3-(thiazol-2-ylamino)-2,5-dihydro-1H-pyrrol-1-yl)piperidine-2,6-dione] | 1.010 | 1.012 | 0.597 | 0.216 | 0.818 | 0.110 | 0.653 | 0.980 | 0.991 | 0.217 | 0.041 | 0.057 | 1.023 | 0.946 | 0.953
Cc1ccc(NC(=O)Nc2ccc(NC3=CC(=O)N(C4CCC(=O)NC4=O)C3=O)cc2)cc1Cl (stereo not drawn) [Compound 42, 1-(3-chloro-4-methylphenyl)-3-(4-((1-(2,6-dioxopiperidin-3-yl)-2,5-dioxo-2,5-dihydro-1H-pyrrol-3-yl)amino)phenyl)urea] | 1.122 | 0.997 | 1.018 | 0.775 | 0.536 | 0.577 | 1.056 | 1.050 | 0.999 | 0.407 | 0.318 | 0.209 | 0.118 | 0.182 | 0.215
CCOC(=O)CN(C)C1=CC(=O)N(C2CCC(=O)NC2=O)C1=O (stereo not drawn) [Compound 17, Ethyl N-(1-(2,6-dioxopiperidin-3-yl)-2,5-dioxo-2,5-dihydro-1H-pyrrol-3-yl)-N-methylglycinate] | 0.897 | 0.912 | 0.895 | 1.020 | 1.018 | 1.025 | 1.006 | 0.996 | 1.037 | 0.043 | 0.032 | 0.015 | 0.942 | 1.001 | 0.795
